Test results published in patent US20250243245A1 (priority 2022, published 2025).
Where a SMILES comes first, the peptide text is derived from it.

These molecules were tested on E. coli strain BL21. Settings: BL21, 24 h.

Compound	MIC [mM]
CC(C)C[C@H](NC(=O)[C@H](CO)NC(=O)[C@H](CCCCN)NC(=O)[C@H](CC(C)C)NC(=O)[C@H](CCCCN)NC(=O)[C@H](CCC(N)=O)NC(=O)[C@H](CC(C)C)NC(=O)[C@H](CC(C)C)NC(=O)[C@H](CCC(=O)O)NC(=O)[C@H](CCC(=O)O)NC(=O)[C@H](CC(C)C)NC(=O)[C@H](CCCNC(=N)N)NC(=O)[C@H](CCCCN)NC(=O)[C@@H]1CCCN1C(=O)[C@@H](N)CC(C)C)C(=O)N[C@@H](CCC(=O)O)C(=O)NCC(=O)N[C@@H](CO)C(=O)N[C@@H](CCCCN)C(=O)N[C@@H](C)C(=O)N[C@@H](Cc1c[nH]cn1)C(=O)N[C@@H](CCC(=O)O)C(=O)N[C@@H](CCCCN)C(=O)N[C@@H](CC(C)C)C(=O)N[C@@H](Cc1c[nH]cn1)C(=O)N[C@@H](CC(=O)O)C(=O)N[C@@H](Cc1c[nH]c2ccccc12)C(=O)N[C@H](C(=O)N[C@@H](CCCNC(=N)N)C(=O)N[C@@H](CCCCN)C(=O)O)[C@@H](C)O [UGK-45] (H-LPKRLEELLQKLKSLEGSKAHEKLHDWTRK-OH; N-terminus and C-terminus assumed)	>20
CC[C@H](C)[C@H](NC(=O)[C@H](CCCNC(=N)N)NC(=O)[C@H](CCCNC(=N)N)NC(=O)[C@H](CCC(N)=O)NC(=O)[C@H](Cc1c[nH]c2ccccc12)NC(=O)[C@@H](N)Cc1ccccc1)C(=O)N[C@@H](CCCNC(=N)N)C(=O)N[C@@H](CCCNC(=N)N)C(=O)N[C@@H](Cc1c[nH]c2ccccc12)C(=O)N[C@@H](CCCNC(=N)N)C(=O)N[C@@H](CCCNC(=N)N)C(=O)NCC(=O)N[C@@H](CO)C(=O)NCC(=O)N[C@@H](Cc1ccc(O)cc1)C(=O)NCC(=O)N[C@@H](CO)C(=O)N1CCC[C@H]1C(=O)NCC(=O)N[C@@H](CCCNC(=N)N)C(=O)N[C@@H](CCCNC(=N)N)C(=O)N[C@@H](Cc1c[nH]c2ccccc12)C(=O)N[C@@H](Cc1c[nH]c2ccccc12)C(=O)N[C@@H](CCCNC(=N)N)C(=O)N[C@@H](Cc1c[nH]c2ccccc12)C(=O)N[C@@H](Cc1c[nH]c2ccccc12)C(=O)N[C@@H](CCCNC(=N)N)C(=O)O [Peptide 27P-2] (H-FWQRRIRRWRRGSGYGSPGRRWWRWWR-OH; N-terminus and C-terminus assumed)	5 to 10
CC(C)C[C@H](NC(=O)[C@H](Cc1c[nH]cn1)NC(=O)[C@H](C)NC(=O)[C@H](CCCCN)NC(=O)[C@H](CO)NC(=O)CNC(=O)[C@H](CCC(=O)O)NC(=O)[C@H](CC(C)C)NC(=O)[C@H](CO)NC(=O)[C@H](CCCCN)NC(=O)[C@H](CC(C)C)NC(=O)[C@H](CCCCN)NC(=O)[C@H](CCC(N)=O)NC(=O)[C@H](CC(C)C)NC(=O)[C@H](CC(C)C)NC(=O)[C@H](CCC(=O)O)NC(=O)[C@H](CCC(=O)O)NC(=O)[C@@H]1CCCN1C(=O)[C@H](CCCNC(=N)N)NC(=O)[C@@H](N)CCCCN)C(=O)N[C@@H](CCC(N)=O)C(=O)N[C@@H](Cc1c[nH]cn1)C(=O)N[C@@H](Cc1c[nH]cn1)C(=O)N[C@@H](CC(=O)O)C(=O)N[C@@H](Cc1c[nH]c2ccccc12)C(=O)N[C@H](C(=O)N[C@@H](CO)C(=O)N[C@@H](CCCCN)C(=O)O)[C@@H](C)O [UGK-41] (H-KRPEELLQKLKSLEGSKAHLQHHDWTSK-OH; N-terminus and C-terminus assumed)	>20
CC(C)C[C@H](NC(=O)[C@H](CCCNC(=N)N)NC(=O)[C@H](CCCNC(=N)N)NC(=O)[C@H](CCC(N)=O)NC(=O)[C@H](Cc1c[nH]c2ccccc12)NC(=O)[C@H](CCC(N)=O)NC(=O)[C@H](Cc1ccccc1)NC(=O)[C@H](C)NC(=O)[C@H](CCC(=O)O)NC(=O)[C@@H]1CCCN1C(=O)[C@H](CC(C)C)NC(=O)[C@@H](N)CCCNC(=N)N)C(=O)N[C@@H](CCCNC(=N)N)C(=O)N[C@@H](CCCNC(=N)N)C(=O)N[C@@H](Cc1c[nH]c2ccccc12)C(=O)N[C@@H](CCCNC(=N)N)C(=O)N[C@@H](CCCNC(=N)N)C(=O)N1CCC[C@H]1C(=O)N[C@@H](CC(=O)O)C(=O)N[C@@H](CO)C(=O)N1CCC[C@H]1C(=O)NCC(=O)N[C@@H](CCCNC(=N)N)C(=O)N[C@@H](CCCNC(=N)N)C(=O)N[C@@H](Cc1c[nH]c2ccccc12)C(=O)N[C@@H](Cc1c[nH]c2ccccc12)C(=O)N[C@@H](CCCNC(=N)N)C(=O)N[C@@H](Cc1c[nH]c2ccccc12)C(=O)N[C@@H](Cc1c[nH]c2ccccc12)C(=O)N[C@@H](CCCNC(=N)N)C(=O)O [UGK-5] (H-RLPEAFQWQRRLRRWRRPDSPGRRWWRWWR-OH; N-terminus and C-terminus assumed)	5 to 10
N=C(N)NCCC[C@H](NC(=O)[C@H](Cc1c[nH]c2ccccc12)NC(=O)[C@H](Cc1c[nH]c2ccccc12)NC(=O)[C@H](CCCNC(=N)N)NC(=O)[C@H](Cc1c[nH]c2ccccc12)NC(=O)[C@H](Cc1c[nH]c2ccccc12)NC(=O)[C@H](CCCNC(=N)N)NC(=O)[C@@H](N)CCCNC(=N)N)C(=O)O [Peptide 8P-1, reference compound] (H-RRWWRWWR-OH; N-terminus and C-terminus assumed)	>20
CC[C@H](C)[C@H](NC(=O)[C@H](CCCCN)NC(=O)[C@H](CC(C)C)NC(=O)[C@@H](NC(=O)[C@H](CCCCN)NC(=O)[C@H](CCCCN)NC(=O)[C@@H](NC(=O)[C@H](CC(C)C)NC(=O)[C@H](CCCCN)NC(=O)[C@@H](N)CCCCN)[C@@H](C)CC)[C@@H](C)CC)C(=O)N[C@@H](CC(C)C)C(=O)NCC(=O)N[C@@H](CO)C(=O)NCC(=O)N[C@@H](Cc1ccc(O)cc1)C(=O)NCC(=O)N[C@@H](CO)C(=O)N1CCC[C@H]1C(=O)NCC(=O)N[C@@H](Cc1ccccc1)C(=O)N[C@@H](Cc1c[nH]c2ccccc12)C(=O)N[C@@H](CCC(N)=O)C(=O)N[C@@H](CCCNC(=N)N)C(=O)N[C@@H](CCCNC(=N)N)C(=O)N[C@H](C(=O)N[C@@H](CCCNC(=N)N)C(=O)N[C@@H](CCCNC(=N)N)C(=O)N[C@@H](Cc1c[nH]c2ccccc12)C(=O)N[C@@H](CCCNC(=N)N)C(=O)N[C@@H](CCCNC(=N)N)C(=O)O)[C@@H](C)CC [Peptide 30P-1]	1.25 to 2.5
CC[C@H](C)[C@H](NC(=O)[C@H](CCCNC(=N)N)NC(=O)[C@H](CCCNC(=N)N)NC(=O)[C@H](CCC(N)=O)NC(=O)[C@H](Cc1c[nH]c2ccccc12)NC(=O)[C@H](Cc1ccccc1)NC(=O)CNC(=O)[C@@H]1CCCN1C(=O)[C@H](CO)NC(=O)CNC(=O)[C@H](Cc1ccc(O)cc1)NC(=O)[C@@H](NC(=O)[C@H](CO)NC(=O)CNC(=O)[C@H](Cc1ccc(O)cc1)NC(=O)[C@H](CO)NC(=O)CNC(=O)[C@H](CCCNC(=N)N)NC(=O)[C@H](Cc1c[nH]c2ccccc12)NC(=O)[C@H](Cc1c[nH]c2ccccc12)NC(=O)[C@H](CCCNC(=N)N)NC(=O)[C@H](Cc1c[nH]c2ccccc12)NC(=O)[C@H](Cc1c[nH]c2ccccc12)NC(=O)[C@H](CCCNC(=N)N)NC(=O)[C@@H](N)CCCNC(=N)N)C(C)C)C(=O)N[C@@H](CCCNC(=N)N)C(=O)N[C@@H](CCCNC(=N)N)C(=O)N[C@@H](Cc1c[nH]c2ccccc12)C(=O)N[C@@H](CCCNC(=N)N)C(=O)N[C@@H](CCCNC(=N)N)C(=O)O [UGI-7] (H-RRWWRWWRGSYGSVYGSPGFWQRRIRRWRR-OH; N-terminus and C-terminus assumed)	5 to 10
CC[C@H](C)[C@H](N)C(=O)N[C@@H](CCC(=O)O)C(=O)N[C@@H](CCCNC(=N)N)C(=O)N[C@@H](CO)C(=O)N[C@H](C(=O)N[C@@H](CC(N)=O)C(=O)N[C@@H](CC(C)C)C(=O)N[C@@H](CC(=O)O)C(=O)N[C@@H](Cc1c[nH]c2ccccc12)C(=O)N[C@@H](Cc1ccc(O)cc1)C(=O)N[C@@H](CCCCN)C(=O)NCC(=O)N1CCC[C@H]1C(=O)N[C@H](C(=O)N[C@@H](CC(C)C)C(=O)N[C@@H](CC(C)C)C(=O)O)[C@@H](C)O)[C@@H](C)O [Peptide 16P-1, reference compound] (H-IERSTNLDWYKGPTLL-OH; N-terminus and C-terminus assumed)	>20
CSCC[C@H](NC(=O)[C@H](Cc1c[nH]c2ccccc12)NC(=O)[C@H](CCC(=O)O)NC(=O)[C@H](Cc1c[nH]c2ccccc12)NC(=O)[C@H](Cc1c[nH]c2ccccc12)NC(=O)[C@H](CCCNC(=N)N)NC(=O)[C@H](CCCNC(=N)N)NC(=O)[C@H](CCC(=O)O)NC(=O)[C@H](CC(C)C)NC(=O)[C@@H]1CCCN1C(=O)[C@H](CO)NC(=O)[C@H](CC(=O)O)NC(=O)[C@H](CC(C)C)NC(=O)[C@H](CC(C)C)NC(=O)[C@H](CCCNC(=N)N)NC(=O)[C@H](CCCNC(=N)N)NC(=O)[C@@H](NC(=O)[C@H](CC(C)C)NC(=O)[C@H](CCC(=O)O)NC(=O)[C@H](CCC(N)=O)NC(=O)[C@H](CC(C)C)NC(=O)[C@H](CCC(N)=O)NC(=O)[C@H](CCC(=O)O)NC(=O)[C@H](CO)NC(=O)CNC(=O)[C@H](CCCNC(=N)N)NC(=O)[C@@H]1CCCN1C(=O)[C@@H](N)CCCCN)[C@@H](C)O)C(=O)N[C@@H](CCCNC(=N)N)C(=O)N[C@@H](CCCNC(=N)N)C(=O)O [UGK-29] (H-KPRGSEQLQELTRRLLDSPLERRWWEWMRR-OH; N-terminus and C-terminus assumed)	>20
CC[C@H](C)[C@H](N)C(=O)N[C@@H](CCC(=O)O)C(=O)N[C@@H](CCCNC(=N)N)C(=O)N[C@@H](CO)C(=O)N[C@@H](CCCNC(=N)N)C(=O)N[C@@H](CC(N)=O)C(=O)N[C@@H](CC(C)C)C(=O)N[C@@H](CC(=O)O)C(=O)N[C@@H](Cc1c[nH]c2ccccc12)C(=O)N[C@@H](Cc1ccc(O)cc1)C(=O)N[C@@H](CCCCN)C(=O)NCC(=O)N1CCC[C@H]1C(=O)N[C@H](C(=O)N[C@@H](CC(C)C)C(=O)N[C@@H](CC(C)C)C(=O)N[C@@H](CC(=O)O)C(=O)N[C@@H](C)C(=O)N[C@@H](CC(C)C)C(=O)N[C@@H](CCCCN)C(=O)N[C@@H](CC(N)=O)C(=O)N[C@@H](CC(C)C)C(=O)N[C@@H](CC(N)=O)C(=O)N[C@@H](CCC(=O)O)C(=O)NCC(=O)N[C@@H](CCCCN)C(=O)N[C@@H](CCCNC(=N)N)C(=O)O)[C@@H](C)O [Peptide I27AB] (H-IERSRNLDWYKGPTLLDALKNLNEGKR-OH; N-terminus and C-terminus assumed)	>20
